According to PubChem BioAssay AID1259407 (Chemical Carcinogenesis Research Information System (CCRIS), 2018):
Active and inactive are the calls of the source. The rule behind the calls is not given here.

Test system: CCRIS mutagenicity, Ames/micronucleus/aberration tests
Experiment: CCRIS mutagenicity studies

CC(C)(C)CN(N=O)C(N)=O
mutagenic call (Test System: E. COLI, Strain/Indicator: HS30R UVRA, Metabolic Activation: NONE, Method: PREINCUBATION): active; positive
mutagenic call (Test System: E. COLI, Strain/Indicator: O16 POLA, Metabolic Activation: NONE, Method: PREINCUBATION): active; positive

O=C(O)C(F)(F)C(F)(F)C(F)(F)C(F)(F)C(F)(F)C(F)(F)C(F)(F)C(F)(F)C(F)(F)F
mutagenic call (Test System: AMES SALMONELLA TYPHIMURIUM, Strain/Indicator: TA98, Metabolic Activation: NONE, Method: PREINCUBATION): inactive; negative
mutagenic call (Test System: AMES SALMONELLA TYPHIMURIUM, Strain/Indicator: TA98, Metabolic Activation: RAT, LIVER, S-9, Method: PREINCUBATION): inactive; negative
mutagenic call (Test System: AMES SALMONELLA TYPHIMURIUM, Strain/Indicator: TA100, Metabolic Activation: NONE, Method: PREINCUBATION): inactive; negative
mutagenic call (Test System: AMES SALMONELLA TYPHIMURIUM, Strain/Indicator: TA100, Metabolic Activation: RAT, LIVER, S-9, Method: PREINCUBATION): inactive; negative
mutagenic call (Test System: AMES SALMONELLA TYPHIMURIUM, Strain/Indicator: TA1535, Metabolic Activation: NONE, Method: PREINCUBATION): inactive; negative
mutagenic call (Test System: AMES SALMONELLA TYPHIMURIUM, Strain/Indicator: TA1535, Metabolic Activation: RAT, LIVER, S-9, Method: PREINCUBATION): inactive; negative
mutagenic call (Test System: AMES SALMONELLA TYPHIMURIUM, Strain/Indicator: TA1537, Metabolic Activation: NONE, Method: PREINCUBATION): inactive; negative
mutagenic call (Test System: AMES SALMONELLA TYPHIMURIUM, Strain/Indicator: TA1537, Metabolic Activation: RAT, LIVER, S-9, Method: PREINCUBATION): inactive; negative
mutagenic call (Test System: AMES SALMONELLA TYPHIMURIUM, Strain/Indicator: TA1538, Metabolic Activation: NONE, Method: PREINCUBATION): inactive; negative
mutagenic call (Test System: AMES SALMONELLA TYPHIMURIUM, Strain/Indicator: TA1538, Metabolic Activation: RAT, LIVER, S=9, Method: PREINCUBATION): inactive; negative
mutagenic call (Test System: CHINESE HAMSTER OVARY, Strain/Indicator: CHO-K1-BH4 (HGPRT), Metabolic Activation: NONE, Method: STANDARD PLATE): inactive; negative
mutagenic call (Test System: CHINESE HAMSTER OVARY, Strain/Indicator: CHO-K1-BH4 (HGPRT), Metabolic Activation: RAT, LIVER, S-9, Method: STANDARD PLATE): inactive; negative
mutagenic call (Test System: UDS RODENT HEPATOCYTES, Strain/Indicator: THY INCORP (NON-S-PHASE), Metabolic Activation: NONE, Method: AUTORADIOGRAPHY): inactive; negative

O=C(ON(OCc1ccccc1)C(=O)c1ccccc1)c1cccc([N+](=O)[O-])c1
mutagenic call (Test System: AMES SALMONELLA TYPHIMURIUM, Strain/Indicator: TA100, Metabolic Activation: NONE, Method: STANDARD PLATE): active; positive
mutagenic call (Test System: AMES SALMONELLA TYPHIMURIUM, Strain/Indicator: TA100, Metabolic Activation: RAT, S-9, AROCLOR, Method: STANDARD PLATE): active; positive
